Values quoted from earlier work, collected in patent US20140199433A1, “POLYDIORGANOSILOXANE-ENCAPSULATED ACTIVE INGREDIENT, METHOD FOR THE PREPARATION THEREOF, AND CHEWING GUM COMPRISING SAME” (Intercontinental Great Brands LLC, priority 2011, published 2014).

Conditions: 20° C. and one atmosphere

water solubility: about 588 grams per liter
SMILES: O=C(O)CC(O)C(=O)O (stereo not shown) [malic acid]
